Results as given in the supplement of paper PMC10307832.

Tests used:
Assay in all cases: relative viability (nuclei count vs DMSO), 5 days (fraction); higher = more cells survive
Alisertib = compound: COc1cc(Nc2ncc3c(n2)-c2ccc(Cl)cc2C(c2c(F)cccc2OC)=NC3)ccc1C(=O)O [Alisertib]
How it was run: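 For viability, nuclei in each treated well were divided by nuclei in vehicle wells and the median across plates was taken. Lung cancer cell lines in 1536-well plates were pinned with five library-drug doses (not always all listed) spaced by √10, cultured 5 days without medium change, and imaged at 4× after Hoechst staining, with plates passing only at control CV below 25% and at least one doubling.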

Alisertib + Trametinib = compound: COc1cc(Nc2ncc3c(n2)-c2ccc(Cl)cc2C(c2c(F)cccc2OC)=NC3)ccc1C(=O)O [Alisertib] + CC(=O)Nc1cccc(-n2c(=O)n(C3CC3)c(=O)c3c(Nc4ccc(I)cc4F)n(C)c(=O)c(C)c32)c1 [Trametinib] (partner 0.02 µM)
How it was run: (§1)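 One day after seeding in 1536-well plates, lung cancer cell lines were dosed by pin tool. Dosing was either single-drug or a fixed anchor-drug dose plus five library-drug doses (not always all listed) in √10 steps. After 5 days, nuclei were stained in one fix-and-stain step and counted on 4× images, and relative viability is the nuclei count of treated wells over that of vehicle wells, given as the median of duplicate plates.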

Alisertib + Palbociclib = compound: COc1cc(Nc2ncc3c(n2)-c2ccc(Cl)cc2C(c2c(F)cccc2OC)=NC3)ccc1C(=O)O [Alisertib] + CC(=O)c1c(C)c2cnc(Nc3ccc(N4CCNCC4)cn3)nc2n(C2CCCC2)c1=O [Palbociclib] (partner 0.5 µM)
How it was run: as §1

Alisertib + Luminespib = compound: COc1cc(Nc2ncc3c(n2)-c2ccc(Cl)cc2C(c2c(F)cccc2OC)=NC3)ccc1C(=O)O [Alisertib] + CCNC(=O)c1noc(-c2cc(C(C)C)c(O)cc2O)c1-c1ccc(CN2CCOCC2)cc1 [Luminespib] (partner 0.01 µM)
How it was run: as §1

Alisertib + OSI-027 = compound: COc1cc(Nc2ncc3c(n2)-c2ccc(Cl)cc2C(c2c(F)cccc2OC)=NC3)ccc1C(=O)O [Alisertib] + COc1cccc2cc(-c3nc([C@H]4CC[C@H](C(=O)O)CC4)n4ncnc(N)c34)[nH]c12 [OSI-027] (partner 0.5 µM)
How it was run: as §1

Alisertib + Tozasertib = compound: COc1cc(Nc2ncc3c(n2)-c2ccc(Cl)cc2C(c2c(F)cccc2OC)=NC3)ccc1C(=O)O [Alisertib] + Cc1cc(Nc2cc(N3CCN(C)CC3)nc(Sc3ccc(NC(=O)C4CC4)cc3)n2)n[nH]1 [Tozasertib] (partner 0.1 µM)
How it was run: as §1

Alisertib + Dasatinib = compound: COc1cc(Nc2ncc3c(n2)-c2ccc(Cl)cc2C(c2c(F)cccc2OC)=NC3)ccc1C(=O)O [Alisertib] + Cc1nc(Nc2ncc(C(=O)Nc3c(C)cccc3Cl)s2)cc(N2CCN(CCO)CC2)n1 [Dasatinib] (partner 0.075 µM)
How it was run: as §1

Alisertib + Phenformin = compound: COc1cc(Nc2ncc3c(n2)-c2ccc(Cl)cc2C(c2c(F)cccc2OC)=NC3)ccc1C(=O)O [Alisertib] + N=C(N)NC(=N)NCCc1ccccc1 [Phenformin] (partner 250 µM)
How it was run: as §1

Alisertib + AZD7762 = compound: COc1cc(Nc2ncc3c(n2)-c2ccc(Cl)cc2C(c2c(F)cccc2OC)=NC3)ccc1C(=O)O [Alisertib] + NC(=O)Nc1cc(-c2cccc(F)c2)sc1C(=O)N[C@H]1CCCNC1 [AZD7762] (partner 0.2 µM)
How it was run: as §1

Alisertib + Pemetrexed = compound: COc1cc(Nc2ncc3c(n2)-c2ccc(Cl)cc2C(c2c(F)cccc2OC)=NC3)ccc1C(=O)O [Alisertib] + Nc1nc2[nH]cc(CCc3ccc(C(=O)N[C@@H](CCC(=O)O)C(=O)O)cc3)c2c(=O)[nH]1 [Pemetrexed] (partner 0.2 µM)
How it was run: as §1

Alisertib + Decitabine = compound: COc1cc(Nc2ncc3c(n2)-c2ccc(Cl)cc2C(c2c(F)cccc2OC)=NC3)ccc1C(=O)O [Alisertib] + Nc1ncn([C@H]2C[C@H](O)[C@@H](CO)O2)c(=O)n1 [Decitabine] (partner 2 µM)
How it was run: as §1

Alisertib + Vorinostat = compound: COc1cc(Nc2ncc3c(n2)-c2ccc(Cl)cc2C(c2c(F)cccc2OC)=NC3)ccc1C(=O)O [Alisertib] + O=C(CCCCCCC(=O)Nc1ccccc1)NO [Vorinostat] (partner 1 µM)
How it was run: as §1

Alisertib + Olaparib = compound: COc1cc(Nc2ncc3c(n2)-c2ccc(Cl)cc2C(c2c(F)cccc2OC)=NC3)ccc1C(=O)O [Alisertib] + O=C(c1cc(Cc2n[nH]c(=O)c3ccccc23)ccc1F)N1CCN(C(=O)C2CC2)CC1 [Olaparib] (partner 8 µM)
How it was run: as §1

Question: Which relative viability (Alisertib; 0.005 µM) does the source give for NCI-H522 here?
Answer: 0.817

Question: What about the relative viability (Alisertib; 0.01581 µM) of the same cell line?
Answer: 1.02

Question: And the relative viability (Alisertib; 0.05 µM)?
Answer: 0.696

Question: What about the relative viability (Alisertib; 0.1581 µM) of the same cell line?
Answer: 0.515

Question: What about the relative viability (Alisertib; 0.5 µM) of the same cell line?
Answer: 0.452

Question: What about the relative viability (Alisertib + Trametinib; first compound 0.005 µM) of the same cell line?
Answer: 0.779

Question: And the relative viability (Alisertib + Trametinib; first compound 0.01581 µM)?
Answer: 0.777

Question: What about the relative viability (Alisertib + Trametinib; first compound 0.05 µM) of the same cell line?
Answer: 0.728

Question: What about the relative viability (Alisertib + Trametinib; first compound 0.1581 µM) of the same cell line?
Answer: 0.551

Question: And the relative viability (Alisertib + Trametinib; first compound 0.5 µM)?
Answer: 0.445

Question: And the relative viability (Alisertib + Palbociclib; first compound 0.005 µM)?
Answer: 0.877

Question: What about the relative viability (Alisertib + Palbociclib; first compound 0.01581 µM) of the same cell line?
Answer: 1.14

Question: And the relative viability (Alisertib + Palbociclib; first compound 0.05 µM)?
Answer: 0.975

Question: What about the relative viability (Alisertib + Palbociclib; first compound 0.1581 µM) of the same cell line?
Answer: 0.76

Question: And the relative viability (Alisertib + Palbociclib; first compound 0.5 µM)?
Answer: 0.519

Question: And the relative viability (Alisertib + Luminespib; first compound 0.005 µM)?
Answer: 1.2

Question: What about the relative viability (Alisertib + Luminespib; first compound 0.01581 µM) of the same cell line?
Answer: 1

Question: And the relative viability (Alisertib + Luminespib; first compound 0.05 µM)?
Answer: 0.493

Question: And the relative viability (Alisertib + Luminespib; first compound 0.1581 µM)?
Answer: 0.331

Question: What about the relative viability (Alisertib + Luminespib; first compound 0.5 µM) of the same cell line?
Answer: 0.426

Question: And the relative viability (Alisertib + OSI-027; first compound 0.005 µM)?
Answer: 0.684

Question: What about the relative viability (Alisertib + OSI-027; first compound 0.01581 µM) of the same cell line?
Answer: 0.618

Question: What about the relative viability (Alisertib + OSI-027; first compound 0.05 µM) of the same cell line?
Answer: 0.69

Question: What about the relative viability (Alisertib + OSI-027; first compound 0.1581 µM) of the same cell line?
Answer: 0.532

Question: What about the relative viability (Alisertib + OSI-027; first compound 0.5 µM) of the same cell line?
Answer: 0.433

Question: And the relative viability (Alisertib + Tozasertib; first compound 0.005 µM)?
Answer: 0.543

Question: And the relative viability (Alisertib + Tozasertib; first compound 0.01581 µM)?
Answer: 0.565

Question: What about the relative viability (Alisertib + Tozasertib; first compound 0.05 µM) of the same cell line?
Answer: 0.489

Question: What about the relative viability (Alisertib + Tozasertib; first compound 0.1581 µM) of the same cell line?
Answer: 0.517

Question: And the relative viability (Alisertib + Tozasertib; first compound 0.5 µM)?
Answer: 0.439

Question: And the relative viability (Alisertib + Dasatinib; first compound 0.005 µM)?
Answer: 0.812

Question: And the relative viability (Alisertib + Dasatinib; first compound 0.01581 µM)?
Answer: 0.91

Question: What about the relative viability (Alisertib + Dasatinib; first compound 0.05 µM) of the same cell line?
Answer: 0.67

Question: And the relative viability (Alisertib + Dasatinib; first compound 0.1581 µM)?
Answer: 0.323

Question: What about the relative viability (Alisertib + Dasatinib; first compound 0.5 µM) of the same cell line?
Answer: 0.434

Question: What about the relative viability (Alisertib + Phenformin; first compound 0.005 µM) of the same cell line?
Answer: 0.521

Question: What about the relative viability (Alisertib + Phenformin; first compound 0.01581 µM) of the same cell line?
Answer: 0.56

Question: And the relative viability (Alisertib + Phenformin; first compound 0.05 µM)?
Answer: 0.75

Question: And the relative viability (Alisertib + Phenformin; first compound 0.1581 µM)?
Answer: 0.419

Question: What about the relative viability (Alisertib + Phenformin; first compound 0.5 µM) of the same cell line?
Answer: 0.493

Question: And the relative viability (Alisertib + AZD7762; first compound 0.005 µM)?
Answer: 0.818

Question: What about the relative viability (Alisertib + AZD7762; first compound 0.01581 µM) of the same cell line?
Answer: 0.843

Question: And the relative viability (Alisertib + AZD7762; first compound 0.05 µM)?
Answer: 0.785

Question: And the relative viability (Alisertib + AZD7762; first compound 0.1581 µM)?
Answer: 0.406

Question: What about the relative viability (Alisertib + AZD7762; first compound 0.5 µM) of the same cell line?
Answer: 0.411

Question: And the relative viability (Alisertib + Pemetrexed; first compound 0.005 µM)?
Answer: 0.743

Question: What about the relative viability (Alisertib + Pemetrexed; first compound 0.01581 µM) of the same cell line?
Answer: 1.22

Question: And the relative viability (Alisertib + Pemetrexed; first compound 0.05 µM)?
Answer: 0.989

Question: What about the relative viability (Alisertib + Pemetrexed; first compound 0.1581 µM) of the same cell line?
Answer: 0.637

Question: What about the relative viability (Alisertib + Pemetrexed; first compound 0.5 µM) of the same cell line?
Answer: 0.516

Question: What about the relative viability (Alisertib + Decitabine; first compound 0.005 µM) of the same cell line?
Answer: 0.69

Question: And the relative viability (Alisertib + Decitabine; first compound 0.01581 µM)?
Answer: 0.686

Question: And the relative viability (Alisertib + Decitabine; first compound 0.05 µM)?
Answer: 0.558

Question: What about the relative viability (Alisertib + Decitabine; first compound 0.1581 µM) of the same cell line?
Answer: 0.443

Question: And the relative viability (Alisertib + Decitabine; first compound 0.5 µM)?
Answer: 0.408

Question: And the relative viability (Alisertib + Vorinostat; first compound 0.005 µM)?
Answer: 0.823

Question: And the relative viability (Alisertib + Vorinostat; first compound 0.01581 µM)?
Answer: 0.897

Question: What about the relative viability (Alisertib + Vorinostat; first compound 0.05 µM) of the same cell line?
Answer: 0.822

Question: And the relative viability (Alisertib + Vorinostat; first compound 0.1581 µM)?
Answer: 0.521

Question: What about the relative viability (Alisertib + Vorinostat; first compound 0.5 µM) of the same cell line?
Answer: 0.549

Question: What about the relative viability (Alisertib + Olaparib; first compound 0.005 µM) of the same cell line?
Answer: 0.604

Question: And the relative viability (Alisertib + Olaparib; first compound 0.01581 µM)?
Answer: 0.591

Question: And the relative viability (Alisertib + Olaparib; first compound 0.05 µM)?
Answer: 0.453

Question: What about the relative viability (Alisertib + Olaparib; first compound 0.1581 µM) of the same cell line?
Answer: 0.452

Question: And the relative viability (Alisertib + Olaparib; first compound 0.5 µM)?
Answer: 0.437
